From patent US20120095024A1, “TOLUIDINE SULFONAMIDES AND THEIR USE” (Elara Pharmaceuticals GmbH, priority 2008, published 2012)

Columns and labels:
[1] = system: estrogen receptor (ER)-mediated transcriptional activity; assay: Inhibition of estrogen receptor (ER) signaling, ERE-tk-luc transfection assay in MCF-7 cells; assay type: cell-based; conditions: Homo sapiens, MCF7, ERE-tk-luc luciferase readout, 24 h
Procedure: To determine the effect of the compounds on estrogen receptor (ER)-mediated transcriptional activity a transfection assay using the MCF-7 cell line was performed. A luciferase-coupled ERE-tk-luc construct was obtained from Dr. G. Reid (EMBL).
In brief, MCF-7 cells were maintained as described previously and seeded on the first experimental day at a concentration of 3500 cells/well in 100 μl medium and incubated under standard conditions for 24 h. Following this initial incubation period, transfection was carried out using 5 ng of the ERE-tk-luc construct (per well) and Exgene 500 transfection reagent (Fermentas) in a final buffered solution containing 150 mM NaCl and 20 mM Tris pH 8.4. The plates were then maintained for 3-4 hours until cell culture conditions in the incubator before compounds were added at 11× concentrations to yield the final desired compound concentrations in 0.5% DMSO (in the same manner as for the proliferation assays described previously).
After an additional 24 h incubation period the degree of inhibition of ER-signaling was determined via a luciferase readout. Cells were treated with Britelite™ plus solution according to the manufacturer's instructions (PerkinElmer, britelite plus, Ultra-High Sensitivity Luminescence Reporter Gene Assay System) and luciferase levels measured on an Envision HTS multilabel plate reader (PerkinElmer) in luminescence mode according to established protocols. Raw data were imported into an ActivityBase database (IDBS, ID Business Solutions) and IC50 values calculated using the IDBS program ActivityBase XE.

caspase-3/7 = assay: Activation of apoptosis, Caspase-Glo 3/7 in HG-1 cells; assay type: cell-based; conditions: caspase-3/7 activation, 24 h
Procedure: Activation of caspase-3/7 signal following treatment with test compounds was carried out using a Caspase-Glo® 3/7 kit (Promega). In brief, HG-1 cells were seeded at a concentration of 1000 cells/well in 50 μl medium into 96-well plates and incubated for 24 h under the conditions described previously. Compounds at various concentrations were then added to the wells (at all final concentrations 0.5% DMSO) and incubated for a further 24 h period. The plates were subsequently removed from the incubator and allowed to equilibrate to room temperature, after which 50 μl Caspase-Glo reagent was added to all wells, the plate shaken at 300 rpm for 30 s, and luminescence measured after a 30 min incubation period on an Envision HTS (PerkinElmer).

HG1 cells = assay: Cell proliferation assay (ATPlite), HG-1; assay type: cell-based; conditions: inhibition of cell proliferation, 72 h
Procedure: MCF-7 human breast adenocarcinoma cells and HL-60 acute promyelocytic leukaemia cells were obtained from ATCC (LGC Promochem). HG-1 multiple myeloma cells were obtained from Dr. D. Hose (DKFZ Heidelberg). The CellSensor® HRE-bla HCT116 cell line (colorectal carcinoma) was obtained from Invitrogen.
Cells were grown under humidified 95% air, 5% CO2 at 37° C. in Dulbecco's modified Eagle's medium (DMEM: MCF-7) or RPMI 1640 medium (RPMI: HL-60, HG-1) supplemented with 10% fetal bovine serum (FBS), 100 U/ml penicillin and 100 μg/ml streptomycin, 2 mM L-glutamine, and 2 ng/ml IL-6 (for the HG-1 cell line only). The HCT116 cell line was grown under the same atmospheric conditions in McCoy's 5A medium supplemented with 10% FBS and penicillin/streptomycin as above, in addition to blasticidin as a selection marker at a final concentration of 5 μg/ml.
Cell proliferation experiments were carried out in 96-well tissue culture plates with seeding of 2000 cells/well (MCF-7) or 1000 cells/well (HL-60, HG-1) in 100 μl of the relevant medium. Cells were subsequently incubated under the conditions mentioned for 24 h prior to addition of compounds.
For the determination of compound EC50 values, 10 μl compounds at 11× concentrations in 5.5% DMSO were added to the wells at various concentrations yielding a final constant percentage of 0.5% DMSO at the desired 1× compound concentration. As a positive control, cells were treated with 5.5% DMSO. The cells were then incubated for a further 72 h prior to the measurement.
To determine the degree of inhibition of cell proliferation, cells were treated with ATPlite solution according to the manufacturer's instructions (PerkinElmer, ATPlite 1-step Luminescence ATP Detection Assay System) and luciferase readout measured on an Envision HTS multilabel plate reader (PerkinElmer) in luminescence mode according to established protocols. Raw data were imported into an ActivityBase database (IDBS, ID Business Solutions) and EC50 values calculated using the IDBS program ActivityBase XE. Table 2A and 2B show the IC50 values obtained in the above-outlined cell proliferation assay for exemplary compounds of the invention.

MCF7 cells = assay: Cell proliferation assay (ATPlite), MCF-7; assay type: cell-based, human; conditions: Homo sapiens, inhibition of cell proliferation, 72 h
In short: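 Cells seeded (MCF-7 2000/well, HG-1 1000/well in RPMI with 2 ng/ml IL-6), then after 24 h exposed to compound at 0.5% DMSO final for 72 h. Proliferation read as ATP luminescence (ATPlite); EC50 calculated from the dose-response.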

Cc1ccc(S(=O)(=O)Nc2cc(-c3ccc(C#N)s3)ccc2C)cc1 [Example 47, N-[5-(5-Cyano-thiophen-2-yl)-2-methyl-phenyl]-4-methyl-benzenesulfonamide]
< 500 nM: IC50 [1] | EC50 (caspase-3/7) | EC50 (HG1 cells) | EC50 (MCF7 cells)
